The record followed here is patent US12528778B2, “Microbiocidal derivatives” (SYNGENTA CROP PROTECTION AG, priority 2019, dated 2026).

By inhibition of growth is commonly meant the drop in the measured response relative to a control, in per cent.

Assay [1] has as its system Alternaria solani. Briefly: Alternaria solani / tomato / leaf disc (early blight). It is filed as in vivo. The note with it: foliar, tomato leaf disks cv. Baby, inoculated 2 days after application, assessed 5-7 days after application, vs untreated control. The procedure:
Example B1: Alternaria solani/Tomato/Leaf Disc (Early Blight) Tomato leaf disks cv. Baby are placed on agar in multiwell plates (24-well format) and sprayed with the formulated test compound diluted in water. The leaf disks are inoculated with a spore suspension of the fungus 2 days after application. The inoculated leaf disks are incubated at 23° C./21° C. […] […]-43, and P-44.

Assay [2] deals with Botryotinia fuckeliana (Botrytis cinerea). Briefly: Botryotinia fuckeliana (Botrytis cinerea) / liquid culture (gray mould). It is filed as cell-based. To be noted: 20 ppm; Vogels broth liquid culture, 24° C., growth inhibition determined photometrically 3-4 days after application; vs untreated control. The procedure:
Example B13: Botryotinia fucleliana (Botrytis cinerea)/Liquid Culture (Gray Mould) Conidia of the fungus from cryogenic storage are directly mixed into nutrient broth (Vogels broth). After placing a (DMSO) solution of test compound into a microtiler plate (96-well format), the nutrient broth containing the fungal spores is added. The test plates are incubated at 24° C. and the inhibition of growth is determined photometrically 3-4 days after application. […] P-25.

Assay [3] has as its system Mycosphaerella graminicola (Septoria tritici). Briefly: Mycosphaerella graminicola (Septoria tritici) / liquid culture (Septoria blotch). It is filed as cell-based. To be noted: Zymoseptoria tritici, PDB liquid culture, 24° C., growth inhibition determined photometrically 4-5 days after application, vs untreated control. The procedure, abridged: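 Conidia from cryogenic storage suspended in potato dextrose broth and added to test compound in DMSO in microplates; incubated at 24 °C, growth inhibition measured photometrically 4-5 days after application.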

In assay [4] the test system is Puccinia recondita f. sp. tritici. Briefly: Puccinia recondita f. sp. tritici / wheat / leaf disc preventative (brown rust). The assay is classed as in vivo. To be noted: foliar, wheat leaf segments cv. Kanzler, inoculated 1 day after application, assessed 7-9 days after application, vs untreated control. On the procedure: Example B8: Puccinia recondita f. sp. tritici/Wheat/Leaf Disc Preventative (Brown rust) Wheat leaf segments cv. Kanzler are placed on agar in multiwell plates (24-well format) and sprayed with the formulated test compound diluted in water. The leaf disks are inoculated with a spore suspension of the fungus 1 day after application. The inoculated leaf segments are incubated at 19° C. and 75% rh under a light regime of 12 h light/12 h darkness in a climate cabinet and the activity of a compound is assessed as percent disease control compared to untreated when an appropriate level of disease damage appears in untreated check leaf segments (7-9 days after application).

Assay [5] relates to Mycosphaerella arachidis (Cercospora arachidicola). Briefly: Mycosphaerella arachidis (Cercospora arachidicola) / liquid culture (early leaf spot). The assay is classed as cell-based. To be noted: PDB liquid culture, 24° C., growth inhibition determined photometrically 4-5 days after application, vs untreated control. On the procedure: Example B6: Mycosphaerella arachidis (Cercospora arachidicola)/Liquid Culture (Early Leaf Spot) Conidia of the fungus from cryogenic storage are directly mixed into nutrient broth (PDB potato dextrose broth). After placing a (DMSO) solution of test compound into a microtiter plate (96-well format), the nutrient broth containing the fungal spores is added. The test plates are incubated at 24° C. and the inhibition of growth is determined photometrically 4-5 days after application. […] […]-44, and P-48.

Assay [6] has as its system Monographella nivalis (Microdochium nivale). Briefly: Monographella nivalis (Microdochium nivale) / liquid culture (foot rot cereals). It is filed as cell-based. To be noted: PDB liquid culture, 24° C., growth inhibition determined photometrically 4-5 days after application, vs untreated control. The procedure, abridged:
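Conidia mixed into potato dextrose broth and added to compound in DMSO. Incubated at 24° C; growth inhibition read photometrically 4-5 days after application.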

Assay [7] has as its system Blumeria graminis f. sp. tritici (Erysiphe graminis f. sp. tritici). Briefly: Blumeria graminis f. sp. tritici / wheat / leaf disc preventative (powdery mildew on wheat). The assay is classed as in vivo. To be noted: foliar, wheat leaf segments cv. Kanzler, inoculated 1 day after application, assessed 6-8 days after application, vs untreated control. On the procedure: Example B3: Blumeria graminis f. sp. tritici (Erysiphe graminis f. so. tritici)/Wheat/Leaf Disc Preventative (Powdery Mildew on Wheat) Wheat leaf segments cv. Kanzler are placed on agar in a multiwell plate (24-well format) and sprayed with the formulated test compound diluted in water. The leaf disks are inoculated by shaking powdery mildew infected plants above the test plates 1 day after application. The inoculated leaf disks are incubated at 20°° C. and 60% rh under a light regime of 24 h darkness followed by 12 h light/12 h darkness in a climate chamber and the activity of a compound is assessed as percent disease control compared to untreated when an appropriate level of disease damage appears on untreated check leaf segments (6-8 days after application). […]-45, and P-50.

The subject of assay [8] is Magnaporthe grisea (Pyricularia oryzae). Briefly: whole plant or invertebrate. It is filed as in vivo. To be noted: foliar, read-out: control of Magnaporthe grisea.
Assay [9] has as its system Glomerella lagenarium (Colletotrichum lagenarium). Briefly: Glomerella lagenarium (Colletotrichum lagenarium) / liquid culture (anthracnose). The note with it: Colletotrichum orbiculare, PDB liquid culture, 24° C., growth inhibition measured photometrically 3-4 days after application, vs untreated control. It is filed as cell-based. The procedure, abridged: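 Cryo-stored conidia suspended in potato dextrose broth and added to test compound supplied in DMSO. Incubated at 24° C; growth inhibition read photometrically 3-4 days after application.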

Take `COc1ncc(Nc2cc(F)cc(F)c2)nc1C(=O)NCC1(C(F)(F)F)CC1` [Compound P-25, 6-(3,5-difluoroanilino)-3-methoxy-N-[[1-(trifluoromethyl)cyclopropyl]methyl] pyrazine-2-carboxamide]: the pest or weed control at 200 ppm in assay [1], in assay [4], in [7] and in assay [8] was not below 80% throughout. Besides, the “control of Botryotinia fuckeliana” value in [2] is given as “at least 80%”. Further, the inhibition of growth at 20 ppm in assay [3], in assay [5], in assay [6] and in assay [9] was not below 80% in each case.

Consider `COc1ncc(Nc2cc(F)cc(F)c2)nc1C(=O)NC1CCC1(C)C` (stereo not shown) [Compound P-43, 6-(3,5-difluoroanilino)-N-(2,2-dimethylcyclobutyl)-3-methoxy-pyrazine-2-carboxamide], for which the pest or weed control at 200 ppm in assay [1], in [4], in assay [7] and in [8] was not below 80% each time. Moreover, the inhibition of growth at 20 ppm in [3], in assay [5], in assay [6] and in [9] was not below 80% each time.

Consider `COc1ncc(Nc2cc(F)cc(F)c2)nc1C(=O)NC(C)(C)C` [Compound P-38, N-tert-butyl-6-(3,5-difluoroanilino)-3-methoxy-pyrazine-2-carboxamide], for which the pest or weed control at 200 ppm in [1], in assay [4], in [7] and in assay [8] was not below 80% each time. In addition, the inhibition of growth at 20 ppm in assay [3], in assay [5], in assay [6] and in assay [9] was not below 80% each time.

Consider `COc1ncc(Nc2ccccc2)nc1C(=O)NC1CCC1(C)C` (stereo not shown) [Compound P-4, 6-anilino-N-(2,2-dimethylcyclobutyl)-3-methoxy-pyrazine-2-carboxamide], for which the pest or weed control at 200 ppm in [1], in assay [4] and in [7] was not below 80% in each case. Further, the inhibition of growth at 20 ppm in assay [3], in assay [5], in [6] and in assay [9] was not below 80% in each case.

In the case of `COc1ncc(Nc2cc(F)cc(F)c2)nc1C(=O)NCC1(C)CCOC2(CCC2)C1` (stereo not shown) [Compound P-22, 6-(3,5-difluoroanilino)-3-methoxy-N-[(8-methyl-5-oxaspiro[3.5]nonan-8-yl)methyl]pyrazine-2-carboxamide], the pest or weed control at 200 ppm in assay [1], in [4], in [7] and in assay [8] was not below 80% throughout. The inhibition of growth at 20 ppm in assay [3], in assay [5], in assay [6] and in assay [9] was not below 80% each time.

Consider `COc1ncc(Nc2cc(F)cc(F)c2)nc1C(=O)NC1COC2(CC2)C1` (stereo not shown) [Compound P-20, 6-(3,5-difluoroanilino)-3-methoxy-N-(4-oxaspiro[2.4]heptan-6-yl)pyrazine-2-carboxamide], for which the pest or weed control at 200 ppm in assay [1], in assay [4], in assay [7] and in [8] was not below 80% each time. In addition, the inhibition of growth at 20 ppm in assay [3], in assay [5], in assay [6] and in assay [9] was not below 80% in each case.

Take `COc1ncc(Nc2cc(F)cc(F)c2)nc1C(=O)NCC(C)(C)C` [Compound P-39, 6-(3,5-difluoroanilino)-N-(2,2-dimethylpropyl)-3-methoxy-pyrazine-2-carboxamide]: the pest or weed control at 200 ppm in [1], in assay [4], in assay [7] and in assay [8] was not below 80% each time. For the same compound, the inhibition of growth at 20 ppm in assay [3], in [5], in assay [6] and in [9] was not below 80% throughout.

`COc1ncc(Nc2cccc(F)c2)nc1C(=O)NC1CCC1(C)C` (stereo not shown) [Compound P-5, N-(2.2-dimethylcyclobutyl)-6-(3-fluoroanilino)-3-methoxy-pyrazine-2-carboxamide]: the pest or weed control at 200 ppm in assay [1], in assay [4], in assay [7] and in assay [8] was not below 80% each time. In addition, the inhibition of growth at 20 ppm in [3], in assay [5], in [6] and in assay [9] was not below 80% each time.
